“And” between values parts separate entries of the source, which are not always exact repeats. Equal entries are not always repeated.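 Compound exposure: 48 hours, 5 concentrations, 96-well plates. Abbreviation: GI50, concentration required for 50% inhibition of growth. At the TGI there is no net growth.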 Bounds are passed on as bounds.

This note sets out measurements from PubChem BioAssay (NCI).

The experiment deals with MDA-MB-468 breast. Briefly: DTP human tumour cell line panel, 48 h.
One may read the GI50 as the concentration that inhibits growth by half. Broadly, the TGI is the concentration giving total growth inhibition. The low end stands for more potent growth arrest, the high end for less potent growth arrest. In the case of `N#C/C(=C\c1ccc(Br)cc1)n1nnc2ccc(F)cc21`, the GI50 is 271 nM and the TGI was found to be 867 nM. Taken in the same sequence, the figures for `C=C1CC2(OC1=O)C(=O)Nc1ccccc12` (configuration not stated) were 854 nM and 2700 nM.

`Cc1ncc(C(=O)Nc2ccc(CN3CCN(C)CC3)c(C(F)(F)F)c2)cc1C#Cc1cnc(N)cc1C#N`: the GI50 is 1290 nM and the TGI amounted to 3780 nM. With `COc1cc(Nc2ncc(F)c(Nc3ccc4c(n3)N(COP(=O)(O)O)C(=O)C(C)(C)O4)n2)cc(OC)c1OC`, the GI50 is 1550 nM and 1650 nM; the TGI was 4740 nM and 5420 nM. `Cc1cnc(C(=O)NNc2nc3sc4c(c3c(=O)n2C)C(C)CCC4)cn1` (configuration not stated): the GI50 is 278 nM and the TGI came out at 1070 nM. For `CN(C)c1ccc(/C=C/c2cc[n+](C)c(/C=C/c3ccc(N(C)C)cc3)c2)cc1`, in that order: 96.9 nM and 537 nM. Consider `C[N+]1=C(/C=C\C=C\c2ccccc2)C(C)(C)c2ccccc21`, for which the GI50 was 636 nM and the TGI came to 4550 nM. For `OC(c1cc(C23CC4CC(CC(C4)C2)C3)nc2c(Cl)cc(Cl)cc12)C1CCCCN1` (configuration not stated), in that order: 1480 nM and 2810 nM. For `O=C(OC[C@H]1O[C@H](OC(=O)c2cc(O)c(O)c(OC(=O)c3cc(O)c(O)c(O)c3)c2)[C@H](OC(=O)c2cc(O)c(O)c(OC(=O)c3cc(O)c(O)c(O)c3)c2)[C@@H](OC(=O)c2cc(O)c(O)c(OC(=O)c3cc(O)c(O)c(O)c3)c2)[C@@H]1OC(=O)c1cc(O)c(O)c(OC(=O)c2cc(O)c(O)c(O)c2)c1)c1cc(O)c(O)c(OC(=O)c2cc(O)c(O)c(O)c2)c1`, in that order: 4750 nM and 17800 nM.

As for `C=C1C(=O)O[C@H]2[C@H]1CC/C(Cn1cc(-c3ccccc3C(F)(F)F)nn1)=C\CC[C@@]1(C)O[C@@H]21`, the GI50 was 1140 nM and the TGI was 2800 nM. For `O=C1C[C@@H]2/C(=C(O)\C=C\c3ccccc3)C(=O)C=C[C@@H]2O1`, in that order: 1580 nM and 3210 nM. For `Cc1cnc(C(=O)Nc2nc3ccc(S(=O)(=O)Nc4ccc(C5(C(F)(F)F)CC5)cc4)cc3[nH]2)cn1`, in that order: 224 nM and 1980 nM. Taken in the same sequence, the figures for `O=C(/C=C/c1ccc(C(F)(F)F)cc1)c1ccc(Nc2nc(NCCO)nc(Nc3ccc(Cl)cc3)n2)cc1` were 5540 nM and 21300 nM. On to `CCN(CC)c1ccc(C(=O)c2ccc(N(CC)CC)cc2)cc1`, for which the GI50 is 298 nM and the TGI amounted to 1660 nM. For `CCOC(=O)c1c2c(n3ccccc13)C(=O)c1ncccc1C2=O`, in that order: 2770 nM and 12000 nM.

As for `COC(=O)[C@@H](C)C[C@H](Cc1ccccc1)NC(=O)c1csc([C@@H](C[C@H](C(C)C)N(C)C(=O)[C@@H](NC(=O)[C@H]2CCCCN2C)C2CC2)OC(C)=O)n1`, the TGI was more than 16500 nM. With `O=C1C(Cl)=C(NCc2ccco2)C(=O)c2ccccc21`, the GI50 was 3710 nM and the TGI was 22000 nM. Taken in the same sequence, the figures for `Cn1cc(-c2ccc(-c3ccc(C4=NC5(CC5)C(=O)N4C[C@@H]4CCN(C(=O)C5CC5)C4)cc3)cc2)cn1` were 16900 nM and 40100 nM. For `Cc1ccc(Cl)cc1NC(=O)c1sc2nc3c(cc2c1N)C(=O)CCC3`, in that order: 2740 nM and 8760 nM.

With `COc1ccc(-c2ccc(-c3ccc(C(=N)N)o3)o2)cc1`, the GI50 was 864 nM and the TGI is 2840 nM. Regarding `Cc1cn(-c2cc(NC(=O)c3ccc(C)c(Nc4nccc(-c5cccnc5)n4)c3)cc(C(F)(F)F)c2)cn1`, the GI50 is 1800 nM and 1750 nM; the TGI is 4060 nM and 8390 nM.

Take `Cc1cc(N2CCOCC2)cc2[nH]c(-c3c(NC[C@@H](O)c4cccc(Cl)c4)cc[nH]c3=O)nc12`: the GI50 is 3650 nM and the TGI is 14000 nM.

As to `O=C1CCc2c(sc3[nH]c(=S)n(Cc4ccc(Cl)cc4)c(=O)c23)C1`, the GI50 is 299 nM and the TGI came to 1210 nM. Taken in the same sequence, the figures for `COc1cc(-c2nc(SCCC(C)C)nc(Nc3ccc(S(N)(=O)=O)cc3)c2C#N)cc(OC)c1OC` were 3070 nM and 9960 nM. For the compound `CCNC(=O)O[C@H]1CN[C@H](C#Cc2cc3ncnc(Nc4ccc(OCc5cccc(F)c5)c(Cl)c4)c3s2)C1`, the GI50 was 155 nM and the TGI was found to be 1920 nM. For `CCN1CCN(CC(=O)N2c3cccc4cccc(c34)N(C(=O)CN3CCN(CC)CC3)C2c2cn(-c3ccccc3)nc2-c2cccc([N+](=O)[O-])c2)CC1`, in that order: 1260 nM and 2760 nM. Taken in the same sequence, the figures for `S=P(N1CC1)(N1CC1)N1CC1` were 23700 nM and 170000 nM. As for `COc1cc(C2CC(c3ccc(Nc4ccnc5cc(Cl)ccc45)cc3)=NN2c2ccc(Cl)cc2)cc(OC)c1OC` (configuration not stated), the GI50 is 908 nM and the TGI was 9670 nM. On to `O=C1C(=O)c2cccnc2-c2ncccc21`, for which the GI50 was 193 nM and the TGI was 491 nM.
